# Data: patent US9486457B2, “Use of cinnabarinic acid as a modulator of immune responses in autoimmune disorders” (The Regents of the University of California, priority 2010, dated 2016)
# Entries after “also recorded” stand apart in the source; their conditions may differ.
# Columns and labels:
# [1] = tested on: experimental allergic encephalomyelitis (EAE); assay: Experimental allergic/autoimmune encephalomyelitis (EAE) induced with MOG peptide and CFA; assay type: in vivo, C57BL/6 mice; conditions: for development / induction of EAE (disease occurrence and severity): single dose (1 mg/mouse) at Day 0 within the emulsion containing MOG peptide and adjuvant, compared to DMSO
# Procedure: FIGS. 10A and 10B illustrate the number or frequency of cytokine producing cells within the CNS (or spleen) of mice treated at day 0 with 1 dose of CA (1 mg/mouse) or vehicle (DMSO) within the emulsion contain MOG peptide and adjuvant. Representative flow plots are shown at the bottom of the figures. EAE survival curve for 10 animals treated with CA or with DMSO showing that 1/10 animals treated with CA gets sick whereas 9/10 animals treated with vehicle (DMSO) are sick at the indicated timepoint.
# However, TCDD and FICZ are both known AHR agonists, like CA, whereas 3,4 DAA appears to act as an antagonist. Therefore the regulation of the Th17/Th22/Treg cell differentiation pathways at the level of the AHR is likely to be more complex than merely reflecting the presence of an agonistic or antagonistic ligand. To assess whether CA was protective in EAE we performed a series of experiments in which CA was administered in a single dose (1 mg/mouse) contained within the emulsion used to induce disease.
# [2] = tested on: naïve (CD45RA+CCR7+CD95−CD25−) CD4+ T cells; assay: Foxp3 induction in stimulated naïve CD4+ T cells; assay type: cell-based, human; conditions: stimulated naïve CD4+ T cells in vitro
# Description: FIG. 9: The synthetic 3-HAA analogue 3,4 DAA (Tranilast) is an AhR antagonist and promotes the induction of Foxp3 by stimulated CD4+ T cells. (A) 3,4 DAA shares some structural similarities to 3-HAA (highlighted region).
# Therefore we asked whether T cells treated with 3,4 DAA might be prompted to differentiate into Treg cells through upregulation of the transcription factor Foxp3 (26).
# human naïve CD4+ T cells = assay: IL-22 induction in cultured human naïve CD4+ T cells stimulated with anti-CD3/anti-CD28 under Th17 polarizing conditions; assay type: cell-based; conditions: CA 25 μM in FIG. 8D
# Description: This is AHR dependent as inclusion of an AHR antagonist fully abrogated effect.
# FIG. 8: CA is an endogenous AhR agonist generated by oxidative dimerization of 3-HAA. (A) An alternative pathway of 3-HAA metabolism leads to the generation of CA either by non-enzymatic (oxidation) or enzymatic (laccase, ceruloplasmin) processes. CA is structurally similar to the synthetic AhR ligand TCDD. […] Data are representative of three similar experiments.
# lymphocytes = assay: CYP1A1 transcription within lymphocytes; assay type: cell-based
# Description: (§1) 3-HAA is particularly susceptible to oxidation, resulting in the formation of the metabolite cinnabarinic acid (CA) through dimerization of two molecules of 3-HAA (24). […] In addition, CA has potent effects on thymocyte maturation (25) not unlike what has been observed in rodents treated with TCDD (26-28) or in transgenic mice with a constitutively active AHR (29). To test the hypothesis that CA is an AHR ligand, we obtained pure CA, prepared through a chemical synthesis using 3-HAA as a starting material and purified by HPLC, and analyzed its ability to bind to and activate the AHR in vitro.
# zebrafish embryos = assay: CYP1A1 induction in zebrafish embryos; assay type: in vivo; conditions: within 72 hours
# Description: as §1
# AHR = target: T1, AHR (Mus musculus, UniProt P30561); assay: AHR-responsive (dioxin responsive element) GFP reporter assay in H1G1 mouse hepatoma cells; assay type: cell-based; conditions: agonist mode
# T1 construct: murine hepatoma cell line stably transfected with an AhR-responsive (AhR-eGFP) reporter construct; endogenous in cells
# T1 sequence (P30561 10-848): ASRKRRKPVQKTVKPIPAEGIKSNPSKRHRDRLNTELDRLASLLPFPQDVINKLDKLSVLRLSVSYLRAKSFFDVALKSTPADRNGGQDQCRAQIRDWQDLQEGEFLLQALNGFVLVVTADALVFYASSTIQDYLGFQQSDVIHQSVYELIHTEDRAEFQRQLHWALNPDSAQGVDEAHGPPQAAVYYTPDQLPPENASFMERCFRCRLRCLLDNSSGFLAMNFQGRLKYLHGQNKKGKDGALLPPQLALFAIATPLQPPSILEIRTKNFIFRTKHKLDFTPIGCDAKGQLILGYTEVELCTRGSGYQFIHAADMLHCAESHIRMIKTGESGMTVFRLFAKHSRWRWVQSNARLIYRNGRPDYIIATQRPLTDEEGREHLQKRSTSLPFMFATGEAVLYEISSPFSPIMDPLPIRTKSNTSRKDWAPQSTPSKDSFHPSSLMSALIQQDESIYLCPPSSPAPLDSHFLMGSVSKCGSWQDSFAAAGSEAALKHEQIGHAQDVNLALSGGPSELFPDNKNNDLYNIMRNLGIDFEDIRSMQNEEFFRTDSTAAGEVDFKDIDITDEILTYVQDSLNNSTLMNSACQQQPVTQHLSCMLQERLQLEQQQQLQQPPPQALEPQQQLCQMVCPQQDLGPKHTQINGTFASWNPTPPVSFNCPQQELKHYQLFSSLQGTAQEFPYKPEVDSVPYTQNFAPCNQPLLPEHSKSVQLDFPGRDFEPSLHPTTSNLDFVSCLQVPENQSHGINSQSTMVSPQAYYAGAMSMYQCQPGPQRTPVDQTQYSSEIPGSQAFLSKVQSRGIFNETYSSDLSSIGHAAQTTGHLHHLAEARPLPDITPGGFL
# Description: (§2) We performed a precursory screen of all tryptophan metabolites including both 3-HKA and 3-HAA to bind to and act as agonists or antagonists of the AHR using two separate assays. First we examined the ability of 3-HKyn, 3-HAA, and PA to displace TCDD binding to the human AHR protein in vitro (20). […] We also measured AHR activation using a mouse hepatoma cell line (H1G1) that stably expresses a green fluorescent protein (GFP) reporter construct downstream of a series of dioxin responsive elements (FIG. 7A) (21).
# human AHR protein = target: T2, human AHR protein (Homo sapiens, UniProt P35869); assay: Displacement of TCDD binding to in vitro translated human AHR protein; conditions: cell-free
# T2 sequence (P35869 11-848): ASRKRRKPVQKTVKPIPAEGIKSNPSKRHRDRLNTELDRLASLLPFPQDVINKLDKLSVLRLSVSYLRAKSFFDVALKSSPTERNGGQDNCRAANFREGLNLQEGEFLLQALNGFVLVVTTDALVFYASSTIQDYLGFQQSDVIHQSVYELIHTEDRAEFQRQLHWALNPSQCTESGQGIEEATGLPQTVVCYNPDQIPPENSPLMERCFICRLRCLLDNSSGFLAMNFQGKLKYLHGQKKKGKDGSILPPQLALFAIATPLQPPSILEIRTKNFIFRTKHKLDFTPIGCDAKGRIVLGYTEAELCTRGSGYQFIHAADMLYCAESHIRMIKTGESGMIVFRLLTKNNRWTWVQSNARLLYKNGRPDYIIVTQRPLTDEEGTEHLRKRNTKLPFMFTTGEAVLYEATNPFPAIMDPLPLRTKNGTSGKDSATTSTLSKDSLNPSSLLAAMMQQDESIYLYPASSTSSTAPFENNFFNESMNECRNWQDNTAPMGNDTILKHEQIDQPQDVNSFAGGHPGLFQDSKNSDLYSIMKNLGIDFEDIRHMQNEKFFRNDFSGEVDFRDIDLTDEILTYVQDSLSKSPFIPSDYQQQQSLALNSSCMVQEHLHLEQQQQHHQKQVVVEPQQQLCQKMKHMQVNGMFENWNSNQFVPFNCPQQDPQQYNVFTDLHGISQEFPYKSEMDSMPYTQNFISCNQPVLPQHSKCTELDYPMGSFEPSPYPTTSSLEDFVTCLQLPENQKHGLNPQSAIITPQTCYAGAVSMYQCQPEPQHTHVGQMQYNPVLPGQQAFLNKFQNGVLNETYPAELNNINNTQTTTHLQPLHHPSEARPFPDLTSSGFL
# Description: as §2
# [3] = single dose 1 mg/mouse in the emulsion
compound,measurement,setting,value
"Nc1c(C(=O)O)c2nc3c(C(=O)O)cccc3oc-2cc1=O [Cinnabarinic Acid, cinnabarinic acid]",animals that get sick (EAE survival curve),"[1]; 10 animals, 1 dose of CA (1 mg/mouse) at day 0, 9/10 with vehicle (DMSO)",1/10
same,Foxp3+ Treg cells in the CNS,[1]; [3],but not in the CNS
same,Foxp3+ Treg cells in the spleen,[1]; [3],"slight, but significant, increase in Foxp3+ Treg cells in the spleen"
same,frequency and number of Th17 and Th22 cells in the spleen,[1]; [3],increase in the frequency and number of Th17 and Th22 cells in the spleen
same,frequency of infiltrating Th17 and Th22 cells in the CNS,[1]; [3],decrease in the frequency of infiltrating Th17 and Th22 cells
same,number of infiltrating T cells in the central nervous system (CNS),[1]; [3],greatly reduced number of infiltrating T cells in the central nervous system (CNS)
same,development / induction of EAE (disease occurrence and severity),[1],inhibits the development of experimental allergic encephalomyelitis (EAE); also recorded: inhibits the induction of EAE
same,development / induction of EAE (disease occurrence and severity),[1]; listed as CA,suppress autoimmunity in a mouse model of multiple sclerosis; also recorded: significant reduction of disease occurrence and severity; also recorded: almost completely block the development of EAE
same,development / induction of EAE (disease occurrence and severity),[1]; listed as Cinnabaric Acid,inhibits the induction of EAE
same,proliferation of splenocytes on restimulation with MOG peptide,[1]; splenocytes from CA treated mice,significantly greater amount of proliferation
same,Foxp3 expression (frequency of CD4+Foxp3+ T cells),[2],did not appear to promote Foxp3 upregulation
same,IL-22 induction,human naïve CD4+ T cells,potently induces IL-22
same,IL-22 induction,human naïve CD4+ T cells; listed as CA,stimulate the differentiation of a newly defined subset of human T cells that produce the cytokine IL-22; also recorded: promoted IL-22 production more strongly than any other tryptophan metabolite tested; also recorded: potently induces IL-22
same,CYP1A1 transcription,lymphocytes,upregulation of CYP1A1 transcription within lymphocytes
same,CYP1A1 induction,zebrafish embryos,potent induction of CYP1A1 in zebrafish embryos
same,AHR agonist activity (activation of AHR-responsive reporter),AHR,activates AHR responsive (Dioxin Responsive Elements)
same,AHR agonist activity (activation of AHR-responsive reporter),AHR; listed as CA,able to bind to and activate the AHR at much lower concentrations than that observed for 3-HAA; also recorded: potent agonist of the AhR
same,displacement / inhibition of TCDD binding to human AHR,human AHR protein,displaces Dioxin (TCDD)
same,displacement / inhibition of TCDD binding to human AHR,human AHR protein; listed as CA,able to bind to and activate the AHR at much lower concentrations than that observed for 3-HAA; also recorded: dose-dependent inhibition of TCDD binding
